Measurements reported in patent US20060122153A1, “Antineoplastic ether lipid compounds with modifications at the sn-2 carbon” (priority 2003, published 2006).

Legend:
Type in all cases: cell-based, human
IGROV1 = assay: NCI growth inhibition screen, ovarian panel; design: key: = means equivalent activity; + means that it appears to be significantly better (i.e., by ˜2x); < means it appears to be less active than ET18OCH3 (˜2x); a combination like =/+ or </+ means that activity is dependent upon the isomer; a combination like =/+ or </+ means that activity is dependent upon the isomer; details: from GI50s
Experimental: (§1) Candidates deemed suitable for in vivo testing were then synthesized in large scale quantities and some of this material was sent to the NCI's Developmental Therapeutics Program for a battery of growth inhibitory studies against various human tumor cell lines (60 cell lines, 9 different panels). The remainder of the material was used to assess in vivo efficacy using murine tumor models. Additionally, studies were conducted on the lead candidates to discern mechanism of action with particular emphasis on these agents apoptotic ability as measured by caspase 3 activity. The details (materials and methods) for these various assays are described further in the following discussion.
(§2) Ten compounds were also sent to NCI's Drug Discovery Program for screening against numerous human tumor cell lines (9 panels total: renal ovarian, colon, CNS, non-small cell lung, leukemia, breast, melanoma, and prostate). The data are shown in FIGS. 2a-i which also include data regarding D- and L-ET-18-OCH3 (listed as L-EL and D-EL in the figures). Upon examining the data, one is struck by how 1R and 1a′S standout in comparison to the other compounds, especially for the renal, ovarian, colon, and CNS panels.

OVCAR-3 = assay: NCI growth inhibition screen, ovarian panel; design: key: = means equivalent activity; + means that it appears to be significantly better (i.e., by ˜2x); < means it appears to be less active than ET18OCH3 (˜2x); a combination like =/+ or </+ means that activity is dependent upon the isomer; a combination like =/+ or </+ means that activity is dependent upon the isomer; details: OVCAR-3, Ovarian; from GI50s
Experimental: as §1, §2

OVCAR-8 = assay: NCI growth inhibition screen, ovarian panel; design: key: = means equivalent activity; + means that it appears to be significantly better (i.e., by ˜2x); < means it appears to be less active than ET18OCH3 (˜2x); a combination like =/+ or </+ means that activity is dependent upon the isomer; a combination like =/+ or </+ means that activity is dependent upon the isomer; details: OVCAR-8, Ovarian; from GI50s
Experimental: as §1, §2

SK-OV-3 = assay: NCI growth inhibition screen, ovarian panel; design: key: = means equivalent activity; + means that it appears to be significantly better (i.e., by ˜2x); < means it appears to be less active than ET18OCH3 (˜2x); a combination like =/+ or </+ means that activity is dependent upon the isomer; a combination like =/+ or </+ means that activity is dependent upon the isomer; details: SK-OV-3, Ovarian; from GI50s
Experimental: as §1, §2

OVCAR-4 = assay: NCI growth inhibition screen, ovarian panel; design: key to Performance as compared to ET-18-O—CH3: = means equivalent activity; + means that it appears to be significantly better (i.e., by ˜2x); < means it appears to be less active than ET18OCH3 (˜2x); a combination like =/+ or </+ means that activity is dependent upon the isomer; a combination like =/+ or </+ means that activity is dependent upon the isomer; details: for activity compared to both ET-18-OCH3 isomers (in words): OVCAR-4, NCI screen; for Performance as compared to ET-18-O—CH3: OVCAR-4, Ovarian, from GI50s
Experimental: as §1, §2

OVCAR-5 = assay: NCI growth inhibition screen, ovarian panel; design: key to Performance as compared to ET-18-O—CH3: = means equivalent activity; + means that it appears to be significantly better (i.e., by ˜2x); < means it appears to be less active than ET18OCH3 (˜2x); a combination like =/+ or </+ means that activity is dependent upon the isomer; a combination like =/+ or </+ means that activity is dependent upon the isomer; details: for activity compared to both ET-18-OCH3 isomers (in words): OVCAR-5, NCI screen; for Performance as compared to ET-18-O—CH3: OVCAR-5, Ovarian, from GI50s
Experimental: as §1, §2

EKVX = assay: NCI growth inhibition screen, non-small cell lung panel; design: key: = means equivalent activity; + means that it appears to be significantly better (i.e., by ˜2x); < means it appears to be less active than ET18OCH3 (˜2x); a combination like =/+ or </+ means that activity is dependent upon the isomer; a combination like =/+ or </+ means that activity is dependent upon the isomer; details: NS cell lung, from GI50s
Experimental: as §1, §2

HOP-92 = assay: as above; design: key: = means equivalent activity; + means that it appears to be significantly better (i.e., by ˜2x); < means it appears to be less active than ET18OCH3 (˜2x); a combination like =/+ or </+ means that activity is dependent upon the isomer; a combination like =/+ or </+ means that activity is dependent upon the isomer; details: HOP-92, NS cell lung; from GI50s
Experimental: as §1, §2

NCI-H23 = assay: as above; design: key: = means equivalent activity; + means that it appears to be significantly better (i.e., by ˜2x); < means it appears to be less active than ET18OCH3 (˜2x); a combination like =/+ or </+ means that activity is dependent upon the isomer; a combination like =/+ or </+ means that activity is dependent upon the isomer; details: NCI-H23, NS cell lung; from GI50s
Experimental: as §1, §2

NCI-H332M = assay: as above; design: key: = means equivalent activity; + means that it appears to be significantly better (i.e., by ˜2x); < means it appears to be less active than ET18OCH3 (˜2x); a combination like =/+ or </+ means that activity is dependent upon the isomer; a combination like =/+ or </+ means that activity is dependent upon the isomer; details: NS cell lung, from GI50s
Experimental: as §1, §2

HOP-62 = assay: as above; details: for Performance as compared to ET-18-O—CH3: HOP-62, NS cell lung, from GI50s; for activity compared to other compounds (in words): HOP-62 cells, NCI screen
Experimental: as §1, §2

MALME-3M = assay: NCI growth inhibition screen, melanoma panel; design: key to Performance as compared to ET-18-O—CH3: = means equivalent activity; + means that it appears to be significantly better (i.e., by ˜2x); < means it appears to be less active than ET18OCH3 (˜2x); a combination like =/+ or </+ means that activity is dependent upon the isomer; a combination like =/+ or </+ means that activity is dependent upon the isomer; details: for Performance as compared to ET-18-O—CH3: MALME-3M, Melanoma, from GI50s; for activity compared to ET-18-OCH3 (in words): melanoma MALME-3M cell line, NCI screen
Experimental: as §1, §2

SMILES | Performance as compared to ET-18-O—CH3 (IGROV1) | Performance as compared to ET-18-O—CH3 (OVCAR-3) | Performance as compared to ET-18-O—CH3 (OVCAR-8) | Performance as compared to ET-18-O—CH3 (SK-OV-3) | activity compared to both ET-18-OCH3 isomers (in words) (OVCAR-4) | Performance as compared to ET-18-O—CH3 (OVCAR-4) | activity compared to both ET-18-OCH3 isomers (in words) (OVCAR-5) | Performance as compared to ET-18-O—CH3 (OVCAR-5) | Performance as compared to ET-18-O—CH3 (EKVX) | Performance as compared to ET-18-O—CH3 (HOP-92) | Performance as compared to ET-18-O—CH3 (NCI-H23) | Performance as compared to ET-18-O—CH3 (NCI-H332M) | Performance as compared to ET-18-O—CH3 (HOP-62) | activity compared to other compounds (in words) (HOP-62) | Performance as compared to ET-18-O—CH3 (MALME-3M) | activity compared to ET-18-OCH3 (in words) (MALME-3M)
CCCCCCCCCCCCCCCCCCOC[C@@H](COP(=O)([O-])OCC[N+](C)(C)C)OS(C)(=O)=O [1a′S] | 0 | 0 | 0 | 0 | significantly better activity | 2048 | significantly better activity | 4096 | 0 | 0 | 0 | 0 | +/= | better than a few of the other compounds | 0 | ET-18-OCH3 was more active
CCCCCCCCCCCCCCCCCCOCC(COP(=O)([O-])OCC[N+](C)(C)C)OS(C)(=O)=O (centres unmarked) [Compound 1aR] | = | = | = | = | significantly better activity | + | significantly better activity | + | = | = | = | = | +/= | better than a few of the other compounds | < | ET-18-OCH3 was more active
